Measurements taken from the supplement of paper PMC10627819.

Legend:
[1] = system: B. subtilis 168; assay: fitness (endpoint OD595 vs no drug) (fraction); higher = more growth
Procedure, shortened: (§1)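 Bacterial fitness was scored as optical density at the stationary-phase transition relative to the robust mean of no-drug control wells. Scores are capped at 1. The growth data were OD595 readings every 30 min for 14 h at 37 °C, background-subtracted against the first reading, from 384-well plates inoculated at OD595 0.01 in TSB, LB Lennox or CY.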

[2] = system: S. aureus DSM 20231; assay: as above
Procedure, shortened: as §1

[3] = system: S. aureus Newman; assay: as above
Procedure, shortened: as §1

[4] = system: B. subtilis 168; assay: Bliss interaction score (quartile over a dose matrix) (fitness difference); higher = more antagonism (negative = synergy)
Procedure, shortened: (§2)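 Fitness was defined as normalised growth: OD595 at the start of stationary phase divided by the plate's robust no-drug mean and capped at 1. Single-drug fitness was inferred from combination measurements. The Bliss score is observed fitness minus the product of the single-drug values, summarised by quartiles across technical, biological and donor/recipient replicates.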

[5] = system: S. aureus DSM 20231; assay: as above
Procedure, shortened: as §2

[6] = system: S. aureus Newman; assay: as above
Procedure, shortened: as §2

[7] = system: S. pneumoniae D39V; assay: as above
Procedure, shortened: as §2
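For Bliss interaction score (quartile over a dose matrix) in this document: first quartile when negative (synergy) and third quartile when positive (antagonism).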
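For fitness (endpoint OD595 vs no drug) in this document: OD595 on entry to stationary phase over no-drug wells; at most 1.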

CC[C@H]1OC(=O)[C@H](C)[C@@H](O[C@H]2C[C@@](C)(OC)[C@@H](O)[C@H](C)O2)[C@H](C)[C@@H](O[C@@H]2O[C@H](C)C[C@H](N(C)C)[C@H]2O)[C@](C)(O)C[C@@H](C)CN(C)[C@H](C)[C@@H](O)[C@]1(C)O [Azithromycin] + O=C(O[C@@H]1Cc2c(O)cc(O)cc2O[C@@H]1c1cc(O)c(O)c(O)c1)c1cc(O)c(O)c(O)c1 [EGCG]
fitness
Settings | partner 6.25 µg/mL | partner 12.5 µg/mL | partner 25 µg/mL | partner 50 µg/mL
[1], first compound 0.25 µg/mL | 0.859 | 0.508 | 0.246 | –
[1], first compound 0.5 µg/mL | 0.912 | 0.461 | – | –
[1], first compound 1 µg/mL | – | – | 0.0462 | –
[2], first compound 0.125 µg/mL | – | 0.703 | 0.693 | 0.614
[2], first compound 0.25 µg/mL | – | 0.761 | 0.695 | –
[3], first compound 0.125 µg/mL | – | 0.759 | 0.706 | 0.696
[3], first compound 0.25 µg/mL | – | 0.726 | 0.715 | 0.658
[3], first compound 0.5 µg/mL | – | 0.545 | 0.522 | 0.484

[1], first compound 2 µg/mL, one replicate
Settings | fitness
partner 6.25 µg/mL | 0.387
partner 12.5 µg/mL | 0.229
partner 25 µg/mL | 0.201

Settings | Bliss interaction score
[4] | -0.0827
[5] | -0.13
[6] | -0.0553
[7] | 0.043

CC[C@H]1OC(=O)[C@H](C)[C@@H](O[C@H]2C[C@@](C)(OC)[C@@H](O)[C@H](C)O2)[C@H](C)[C@@H](O[C@@H]2O[C@H](C)C[C@H](N(C)C)[C@H]2O)[C@](C)(O)C[C@@H](C)CN(C)[C@H](C)[C@@H](O)[C@]1(C)O [Azithromycin] + COc1c(N2C[C@@H]3CCCN[C@@H]3C2)c(F)cc2c(=O)c(C(=O)O)cn(C3CC3)c12 [Moxifloxacin]
fitness
Settings | first compound 0.125 µg/mL | first compound 0.25 µg/mL | first compound 0.5 µg/mL | first compound 1 µg/mL | first compound 2 µg/mL
[1], partner 0.0312 µg/mL | – | – | 0.0678 | 0.0582 | 0.0414
[1], partner 0.0625 µg/mL | – | 0.0511 | 0.0366 | 0.0237 | 0.0289
[1], partner 0.125 µg/mL | – | 0.0301 | 0.0372 | 0.0336 | 0.02
[1], partner 2 µg/mL | – | 0.027 | 0.0186 | 0.0208 | –
[1], partner 4 µg/mL | – | 0.0147 | 0.0272 | 0.0194 | –
[1], partner 8 µg/mL | – | 0.0347 | 0.042 | 0.0214 | –
[2], partner 0.0075 µg/mL | 0.727 | 0.747 | – | – | –
[2], partner 0.015 µg/mL | 0.687 | 0.772 | 0.592 | – | –
[2], partner 0.03 µg/mL | 0.656 | 0.737 | 0.556 | – | –
[3], partner 0.0075 µg/mL | 0.717 | 0.723 | – | – | –
[3], partner 0.015 µg/mL | 0.666 | – | 0.415 | – | –
[3], partner 0.03 µg/mL | – | – | 0.307 | – | –

fitness, [2], one replicate
Settings | first compound 0.125 µg/mL | first compound 0.25 µg/mL | first compound 0.5 µg/mL
partner 0.06 µg/mL | 0.633 | 0.623 | 0.587
partner 0.12 µg/mL | 0.528 | 0.559 | 0.452

Settings | Bliss interaction score
[4] | 0.0244
[5] | 0.0773
[6] | 0.118
[7] | 0.0652

CC[C@H]1OC(=O)[C@H](C)[C@@H](O[C@H]2C[C@@](C)(OC)[C@@H](O)[C@H](C)O2)[C@H](C)[C@@H](O[C@@H]2O[C@H](C)C[C@H](N(C)C)[C@H]2O)[C@](C)(O)C[C@@H](C)CN(C)[C@H](C)[C@@H](O)[C@]1(C)O [Azithromycin] + CN1C2=CC=CC=C2N=C3C1=CC=CC3=O [Pyocyanin]
fitness
Settings | partner 1.25 µg/mL | partner 2.5 µg/mL | partner 5 µg/mL
[1], first compound 0.25 µg/mL | 0.838 | 0.792 | 0.648
[1], first compound 0.5 µg/mL | – | 0.631 | –
[2], first compound 0.125 µg/mL | 0.851 | 0.789 | 0.694
[2], first compound 0.25 µg/mL | 0.797 | 0.8 | 0.666
[3], first compound 0.125 µg/mL | 0.865 | 0.788 | –
[3], first compound 0.25 µg/mL | 0.856 | 0.759 | –
[3], first compound 0.5 µg/mL | – | – | 0.21

Settings | Bliss interaction score
[4] | -0.0732
[5] | -0.0596
[6] | 0.0847
[7] | -0.0827

CC[C@H]1OC(=O)[C@H](C)[C@@H](O[C@H]2C[C@@](C)(OC)[C@@H](O)[C@H](C)O2)[C@H](C)[C@@H](O[C@@H]2O[C@H](C)C[C@H](N(C)C)[C@H]2O)[C@](C)(O)C[C@@H](C)CN(C)[C@H](C)[C@@H](O)[C@]1(C)O [Azithromycin] + Cc1onc(-c2ccccc2)c1C(=O)N[C@@H]1C(=O)N2[C@@H]1SC(C)(C)[C@@H]2C(=O)O [Oxacillin]
fitness
Settings | first compound 0.125 µg/mL | first compound 0.25 µg/mL | first compound 0.5 µg/mL | first compound 1 µg/mL
[1], partner 0.002 µg/mL | – | 0.881 | 0.87 | 0.535
[1], partner 0.004 µg/mL | – | 0.851 | 0.818 | 0.503
[1], partner 0.0078 µg/mL | – | ≥ 1 | 0.888 | –
[1], partner 0.008 µg/mL | – | 0.824 | 0.842 | 0.453
[1], partner 0.0155 µg/mL | – | 0.964 | 0.887 | –
[1], partner 0.031 µg/mL | – | 0.983 | 0.908 | –
[2], partner 0.0156 µg/mL | 0.722 | 0.786 | – | –
[2], partner 0.0312 µg/mL | 0.617 | 0.62 | 0.183 | –
[2], partner 0.0625 µg/mL | 0.482 | 0.54 | 0.379 | –
[3], partner 0.0156 µg/mL | 0.723 | 0.726 | – | –
[3], partner 0.0312 µg/mL | 0.715 | 0.725 | 0.365 | –
[3], partner 0.0625 µg/mL | 0.624 | 0.622 | 0.31 | –

fitness, [1], one replicate
Settings | first compound 0.5 µg/mL | first compound 1 µg/mL | first compound 2 µg/mL
partner 0.075 µg/mL | 0.582 | 0.318 | 0.0267
partner 0.15 µg/mL | 0.037 | 0.0238 | 0.016
partner 0.3 µg/mL | 0.0266 | 0.0264 | 0.0201

Settings | Bliss interaction score
[4] | 0.0492
[5] | -0.0461
[6] | 0.0591
[7] | 0.0949

CC[C@H]1OC(=O)[C@H](C)[C@@H](O[C@H]2C[C@@](C)(OC)[C@@H](O)[C@H](C)O2)[C@H](C)[C@@H](O[C@@H]2O[C@H](C)C[C@H](N(C)C)[C@H]2O)[C@](C)(O)C[C@@H](C)CN(C)[C@H](C)[C@@H](O)[C@]1(C)O [Azithromycin] + CN(N=O)C(=O)N[C@@H](C=O)[C@@H](O)[C@H](O)[C@H](O)CO [Streptozotocin]
fitness
Settings | partner 0.15 µg/mL | partner 0.3 µg/mL | partner 0.6 µg/mL
[1], first compound 0.25 µg/mL | 0.938 | 0.952 | 0.918
[1], first compound 0.5 µg/mL | 0.897 | 0.902 | 0.842
[2], first compound 0.125 µg/mL | 0.796 | 0.742 | 0.703
[2], first compound 0.25 µg/mL | 0.72 | 0.73 | 0.736
[2], first compound 0.5 µg/mL | 0.37 | 0.293 | –
[3], first compound 0.125 µg/mL | 0.81 | 0.707 | 0.564
[3], first compound 0.25 µg/mL | 0.811 | 0.76 | 0.657
[3], first compound 0.5 µg/mL | 0.576 | 0.5 | 0.367

Settings | Bliss interaction score
[4] | 0.0551
[5] | -0.0752
[6] | 0.0643
[7] | 0.0501

CC[C@H]1OC(=O)[C@H](C)[C@@H](O[C@H]2C[C@@](C)(OC)[C@@H](O)[C@H](C)O2)[C@H](C)[C@@H](O[C@@H]2O[C@H](C)C[C@H](N(C)C)[C@H]2O)[C@](C)(O)C[C@@H](C)CN(C)[C@H](C)[C@@H](O)[C@]1(C)O [Azithromycin] + C[C@@H]1O[C@@H]1P(=O)(O)O [Fosfomycin]
fitness
Settings | partner 0.781 µg/mL | partner 1.562 µg/mL | partner 3.124 µg/mL | partner 6.248 µg/mL
[1], first compound 0.25 µg/mL | – | 0.713 | 0.61 | 0.445
[1], first compound 0.5 µg/mL | – | 0.622 | 0.582 | 0.442
[2], first compound 0.125 µg/mL | 0.728 | 0.615 | 0.509 | –
[2], first compound 0.25 µg/mL | 0.68 | 0.625 | 0.554 | –
[2], first compound 0.5 µg/mL | 0.526 | 0.306 | 0.124 | –
[3], first compound 0.125 µg/mL | 0.622 | 0.525 | 0.18 | –
[3], first compound 0.25 µg/mL | 0.597 | 0.429 | 0.0915 | –
[3], first compound 0.5 µg/mL | 0.312 | 0.128 | 0.0235 | –

[1], first compound 2 µg/mL, one replicate
Settings | fitness
partner 1.562 µg/mL | 0.367
partner 3.124 µg/mL | 0.176
partner 6.248 µg/mL | 0.0795

Settings | Bliss interaction score
[4] | 0.0745
[5] | -0.0651
[6] | -0.12
[7] | 0.0708
